Values after ≈ are worked out from the molar mass of the structure shown. Like-named read-outs stand apart in the source and are kept apart here.
Columns and labels:
[1] = biological target: T1, SpsB (Staphylococcus aureus signal peptidase) (Staphylococcus aureus, UniProt P0A070); experiment: cell-based; assay type: biochemical; conditions: SpsB IC50, whole-cell S. aureus (USA300 background, overexpressing SpsB) as SpsB source; fluorogenic peptide substrate, kinetic read 30 min
T1 construct: This assay uses a suspension of Staphylococcus aureus cells as a source of SpsB instead of recombinant SpsB protein; endogenous in cells; host or cells: S. aureus, USA300 background, overexpressing SpsB (whole-cell suspension from frozen pellets)
In short: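 Cleavage of an internally quenched (Dabcyl)βAla-KPAKAAE(Edans) peptide, added as 20 μM solution mixed 1:1 with cells, was followed for 30 min at 340/490 nm. SpsB came from a suspension of SpsB-overexpressing USA300 S. aureus in Tween-80-containing PBS buffer. Slopes plotted against 3-fold compound dilutions gave IC50.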

[2] = test system: Methicillin Resistant Staphylococcus aureus strain USA 300, NRS384; experiment: Minimum inhibitory concentration, broth micro-dilution (CLSI), S. aureus; assay type: cell-based; conditions: Staphylococcus aureus, MRSA / NRS 384 / USA300, 22 h, 35° C., 22 hours
In short: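 Colonies grown 20 hours at 35° C were suspended in cation-adjusted Mueller Hinton Broth with 0.002% Tween-80. Cells were then added to 2-fold compound dilutions starting at 4 or 0.5 μg/mL, at OD600 0.0005.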

[3] = test system: Escherichia coli ATCC 25922; experiment: Minimum inhibitory concentration, broth micro-dilution (CLSI), E. coli; assay type: cell-based; conditions: Escherichia coli, ATCC25922, 22 h, 35° C., 22 hours
[4] = test system: Escherichia coli MC4100 harboring the IMP4213 (E. coli IMP); experiment: microbe, parasite or virus in culture; assay type: cell-based; conditions: Escherichia coli, 22 h, read-out: MIC (μg/mL) E. coli IMP, E. coli MC4100 IMP4213, increased outer-membrane permeability; 35° C., 22 hours
In short: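 Ten 2-fold dilutions, from 4 μg/mL or from 0.5 μg/mL depending on protocol, are challenged with bacteria at OD600 0.0005 in Tween-80-supplemented cation-adjusted Mueller Hinton Broth. Plates incubate 22 hours at 35° C per CLSI. The E. coli IMP4213 strain has increased outer-membrane permeability.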

[5] = MRSA USA 300 NRS384, read-out: MIC (μg/mL) S. aureus
[6] = E. coli ATCC 25922, read-out: MIC (μg/mL) E. coli
[7] = read-out: MIC (μg/mL) S. aureus, MRSA USA 300 NRS384
[8] = read-out: MIC (μg/mL) E. coli, E. coli ATCC 25922

T1 sequence (P0A070 whole entry): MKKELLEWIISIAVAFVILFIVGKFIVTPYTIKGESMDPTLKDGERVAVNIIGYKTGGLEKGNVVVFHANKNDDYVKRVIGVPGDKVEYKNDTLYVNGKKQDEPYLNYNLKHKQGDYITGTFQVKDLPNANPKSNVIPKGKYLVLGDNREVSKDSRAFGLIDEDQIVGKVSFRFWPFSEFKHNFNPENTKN

Compound	IC50 [1] [nM]	MIC [2, 5] [µg/mL]	MIC [3, 6] [µg/mL]	MIC [4] [µg/mL]	MIC [2, 7] [µg/mL]	MIC [3, 8] [µg/mL]
CCCCCCCCc1cc(C)c(C(=O)N[C@@H](CCN)C(=O)N(C)[C@@H]2C(=O)N[C@@H](C)C(=O)N[C@H](C(=O)NCC#N)Cc3ccc(OCCN)c(c3)-c3cc2ccc3OCCN)s1 [Compound 438]	0.78	0.063 (≈ 0.0721 µM)	0.38 (≈ 0.435 µM)	0.031 (≈ 0.0355 µM)		
CCCCCCCOc1ccc(C(=O)N[C@@H](CCN)C(=O)N(C)[C@@H]2C(=O)N[C@@H](C)C(=O)N[C@H](C(=O)NCC#N)Cc3ccc(OCCN)c(c3)-c3cc2ccc3OCCN)c(C(F)F)c1 [Compound 442]	2.9	0.063 (≈ 0.0695 µM)	0.19 (≈ 0.21 µM)	0.0078 (≈ 0.00861 µM)		
Cc1nn(-c2ccc(CC(C)C)cc2)cc1C(=O)N[C@@H](CCN)C(=O)N(C)[C@@H]1C(=O)N[C@@H](C)C(=O)N[C@H](C(=O)NCC#N)Cc2ccc(OCCN)c(c2)-c2cc1ccc2OCCN [Compound 443]	0.9	0.094 (≈ 0.107 µM)	4 (≈ 4.56 µM)	0.047 (≈ 0.0535 µM)		
Cc1cc(-n2cc(CC(C)C)cn2)ccc1C(=O)N[C@@H](CCN)C(=O)N(C)[C@@H]1C(=O)N[C@@H](C)C(=O)N[C@H](C(=O)NCC#N)Cc2ccc(OCCN)c(c2)-c2cc1ccc2OCCN [Compound 445]	1	0.094 (≈ 0.107 µM)	1 (≈ 1.14 µM)	0.016 (≈ 0.0182 µM)		
CCCCCCCCc1ccc(C(=O)N[C@@H](CCN)C(=O)N(C)[C@@H]2C(=O)N[C@@H](C)C(=O)N[C@H](C(=O)NCC#N)Cc3ccc(OCCN)c(c3)-c3cc2ccc3OCCN)c(CC(N)=O)c1 [Compound 448]	0.93			0.016 (≈ 0.0176 µM)	0.023 (≈ 0.0252 µM)	0.75 (≈ 0.823 µM)
CCCCCCCCc1ccc(C(=O)N[C@@H](CCN)C(=O)N(C)[C@@H]2C(=O)N[C@@H](C)C(=O)N[C@H](C(=O)NCC#N)Cc3ccc(OCCN)c(c3)-c3cc2ccc3OCCN)c(/C=C/C(N)=O)c1 [Compound 450]	0.66	0.13 (≈ 0.141 µM)	16 (≈ 17.3 µM)	0.063 (≈ 0.0682 µM)		
CCCCCCCCCCCC(=O)N[C@@H](CC#N)C(=O)N(C)[C@@H]1C(=O)N[C@@H](C)C(=O)N[C@H](C(=O)NCC#N)Cc2ccc(OCCN)c(c2)-c2cc1ccc2OCCN [Compound 453]	2.3			0.13 (≈ 0.159 µM)	0.13 (≈ 0.159 µM)	16 (≈ 19.6 µM)
CCCCCCCCCCCC(=O)N[C@@H](CCn1cncn1)C(=O)N(C)[C@@H]1C(=O)N[C@@H](C)C(=O)N[C@H](C(=O)NCC#N)Cc2ccc(OCCN)c(c2)-c2cc1ccc2OCCN [Compound 454]	1.8	0.13 (≈ 0.149 µM)	32 (≈ 36.7 µM)	0.13 (≈ 0.149 µM)		
CCCCCCCCc1ccc(C(=O)N[C@@H](CCCN)C(=O)N(C)[C@@H]2C(=O)N[C@@H](C)C(=O)N[C@H](C(=O)NCC#N)Cc3ccc(OCCCN)c(c3)-c3cc2ccc3OCCCN)cc1 [Compound 457]	0.64	0.047 (≈ 0.0524 µM)	0.25 (≈ 0.279 µM)	0.0078 (≈ 0.0087 µM)		
CCCCCCCCCCCCCC(=O)N(C)[C@@H]1C(=O)N[C@@H](C)C(=O)N[C@H](C(=O)NCC#N)Cc2ccc(OCCN(C)C)c(c2)-c2cc1ccc2OCCN(C)C [Compound 460]	14	2 (≈ 2.49 µM)	16 (≈ 19.9 µM)	1.5 (≈ 1.87 µM)		
C[C@@H]1NC(=O)[C@@H](N(C)C(=O)CCNCc2ccc(-c3ccc(Cl)cc3)cc2)c2ccc(OCCN)c(c2)-c2cc(ccc2OCCN)C[C@@H](C(=O)NCC#N)NC1=O [Compound 461]	0.74	0.063 (≈ 0.0778 µM)	> 64	4 (≈ 4.94 µM)		
CCCCCc1ccc(CNCCC(=O)N(C)[C@@H]2C(=O)N[C@@H](C)C(=O)N[C@H](C(=O)NCC#N)Cc3ccc(OCCN)c(c3)-c3cc2ccc3OCCN)c(C)c1 [Compound 462]	0.81	0.094 (≈ 0.12 µM)	64 (≈ 81.7 µM)	4 (≈ 5.11 µM)		
CCCCCCCCCC(=O)NCC(=O)N(C)[C@@H]1C(=O)N[C@@H](C)C(=O)N[C@H](C(=O)NCC#N)Cc2ccc(OCCN)c(c2)-c2cc1ccc2OCCN [Compound 463]	3.2	0.5 (≈ 0.668 µM)	> 64	0.5 (≈ 0.668 µM)		
CCCCCCCCCC(=O)NCCC(=O)N(C)[C@@H]1C(=O)N[C@@H](C)C(=O)N[C@H](C(=O)NCC#N)Cc2ccc(OCCN)c(c2)-c2cc1ccc2OCCN [Compound 464]	6	1 (≈ 1.31 µM)	> 64	> 4		
CCCCCCCCCCCCCC(=O)N[C@@H](CC)C(=O)N(C)[C@@H]1C(=O)N[C@@H](C)C(=O)N[C@H](C(=O)NCC#N)Cc2ccc(OCCN)c(c2)-c2cc1ccc2OCCN [Compound 465]	1.6	0.094 (≈ 0.113 µM)	4 (≈ 4.8 µM)	0.19 (≈ 0.228 µM)		
CCCCCCCCCCCC(=O)N[C@@H](CCCCN)C(=O)N(C)[C@@H]1C(=O)N[C@@H](C)C(=O)N[C@H](C(=O)NCC#N)Cc2ccc(O)c(c2)-c2cc1ccc2O [Compound 468]	3.4	0.19 (≈ 0.249 µM)	64 (≈ 84 µM)	0.5 (≈ 0.656 µM)		
CCCCCCCCCCNCCC(=O)N[C@@H](CO)C(=O)N(C)[C@@H]1C(=O)N[C@@H](C)C(=O)N[C@H](C(=O)NCC#N)Cc2ccc(O)c(c2)-c2cc1ccc2O [Compound 469]	5	4 (≈ 5.33 µM)	> 64	> 4		
CCCCCCCCc1ccc(C(=O)N[C@@H](CCCCN)C(=O)N(C)[C@@H]2C(=O)N[C@@H](C)C(=O)N[C@H](C(=O)NCC#N)Cc3ccc(OC)c(c3)-c3cc2ccc3OC)cc1 [Compound 470]	24	3 (≈ 3.64 µM)	> 64	0.5 (≈ 0.607 µM)		
CCCCCCCCc1ccc(C(=O)N[C@@H](CCCN)C(=O)N(C)[C@@H]2C(=O)N[C@@H](C)C(=O)N[C@H](C(=O)NCC#N)Cc3ccc(OC)c(c3)-c3cc2ccc3OC)c(OC)c1 [Compound 473]	39	1.5 (≈ 1.79 µM)	> 64	0.25 (≈ 0.298 µM)		
CCCCCCCCCCCCCC(=O)N(C)[C@@H]1C(=O)N[C@@H](C)C(=O)N[C@H](C(=O)NCC#N)Cc2ccc(OCCN)c(c2)-c2cc1ccc2OCCN [Compound 475]	18	1 (≈ 1.34 µM)	6 (≈ 8.02 µM)	0.5 (≈ 0.668 µM)		
CCCCCCCCc1ccc(C(=O)N(C)[C@@H]2C(=O)N[C@@H](C)C(=O)N[C@H](C(=O)NCC#N)Cc3ccc(OCCN)c(c3)-c3cc2ccc3OCCN)cc1 [Compound 476]	86	2 (≈ 2.65 µM)	32 (≈ 42.4 µM)	8 (≈ 10.6 µM)		
CCCCc1ccc(-c2ccc(C(=O)N[C@@H](CC3CCNCC3)C(=O)N(C)[C@@H]3C(=O)N[C@@H](C)C(=O)N[C@H](C(=O)NCC#N)Cc4ccc(OCCN)c(c4)-c4cc3ccc4OCCN)cc2)cc1 [Compound 477]	0.68	0.063 (≈ 0.0679 µM)	4 (≈ 4.31 µM)	0.063 (≈ 0.0679 µM)		
CCCCc1ccc(-c2ccc(C(=O)N[C@@H](Cc3c[nH]cn3)C(=O)N(C)[C@@H]3C(=O)N[C@@H](C)C(=O)N[C@H](C(=O)NCC#N)Cc4ccc(OCCN)c(c4)-c4cc3ccc4OCCN)cc2)cc1 [Compound 478]	1.5	0.19 (≈ 0.209 µM)	6 (≈ 6.59 µM)	0.19 (≈ 0.209 µM)		
CCCCCCc1ccc(C(=O)N2C[C@@H](N)CC2C(=O)N(C)[C@@H]2C(=O)N[C@@H](C)C(=O)N[C@H](C(=O)NCC#N)Cc3ccc(OCCN)c(c3)-c3cc2ccc3OCCN)c(C)c1 (stereo partly drawn) [Compound 480]	0.92	0.19 (≈ 0.223 µM)	0.5 (≈ 0.587 µM)	0.012 (≈ 0.0141 µM)		
